# In ChEMBL document CHEMBL3886909, “7-hydroxy-spiropipiperidine indolinyl antagonists of P2Y1 receptor” (2016):
# Target: T1, P2Y purinoceptor 1 (Homo sapiens, UniProt P47900)
# Assay: Binding Assay: Binding reactions were performed in WGA FLASHPLATEs (PerkinElmer Life Sciences, Cat # SMP105A) in a volume of 200 uL containing 45 fmol of P2Y1 receptor (5 ug of total protein), 0.5 nM [33P] […] Reactions were allowed to proceed to completion at room temperature for 1 hour and then the aqueous solution aspirated.
# T1 sequence (P47900 whole entry): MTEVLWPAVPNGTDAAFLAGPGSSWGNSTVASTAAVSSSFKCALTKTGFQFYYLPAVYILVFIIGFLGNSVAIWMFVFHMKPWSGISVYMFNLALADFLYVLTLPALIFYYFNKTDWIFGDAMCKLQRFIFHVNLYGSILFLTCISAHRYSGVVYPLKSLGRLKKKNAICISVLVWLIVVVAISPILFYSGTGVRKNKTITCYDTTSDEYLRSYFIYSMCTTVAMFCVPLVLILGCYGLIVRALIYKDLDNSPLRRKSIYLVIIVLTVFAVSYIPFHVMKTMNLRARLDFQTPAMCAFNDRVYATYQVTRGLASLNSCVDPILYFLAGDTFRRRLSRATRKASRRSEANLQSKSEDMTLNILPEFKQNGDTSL
row,SMILES,Ki [nM]
1,CC(C)(C)CN1CCC2(CC1)CN(c1ccccc1NC(=O)Nc1ccc(OC(F)(F)F)cc1)c1c(O)cc(F)cc12,9.1

# Target: T1, P2Y purinoceptor 1
# Assay: Scintillation Proximity Assay (SPA): A SPA membrane binding assay was used to identify inhibitors of [33P] […] Binding reactions were performed in 384-well OptiPlates (PerkinElmer Life Sciences, Cat #6007299) in a volume of 50 uL containing 15 fmol of P2Y1 receptor (1.7 ug of total protein), 0.3 nM [33P] […] Reactions were allowed to proceed to completion at room temperature for 1 hour followed by centrifugation of the plate for 5 min. About 40 uL of the aqueous soluttion was aspirated. Plates were sealed and the [33P]
row,SMILES,Ki [nM]
1,CC(C)N1CCC2(CC1)CN(c1ccccc1NC(=O)Nc1ccc(OC(F)(F)F)cc1)c1c(O)ccc(-c3nc4cc(Cl)ccc4s3)c12,24
2,CC(C)(C)CN1CCC2(CC1)CN(c1ccccc1NC(=O)Nc1ccc(OC(F)(F)F)cc1)c1c(O)ccc(-c3nc4ccc(Cl)cc4s3)c12,73.4
3,CC(C)(C)CN1CCC2(CC1)CN(c1ccccc1NC(=O)Nc1ccc(OC(F)(F)F)cc1)c1c(O)ccc(-c3nc4cc(Cl)ccc4s3)c12,137
4,CC(C)CN1CCC2(CC1)CN(c1ccccc1NC(=O)Nc1ccc(OC(F)(F)F)cc1)c1c(O)ccc(-c3nc4cc(Cl)ccc4s3)c12,9.6
5,CC(C)(C)CN1CCC2(CC1)CN(c1ccccc1NC(=O)Nc1csc(Cl)n1)c1c(O)ccc(-c3nc4cc(Cl)ccc4s3)c12,9.1
6,CC(C)(C)CN1CCC2(CC1)CN(c1ccccc1NC(=O)Nc1nc3ccc(F)cc3s1)c1c(O)ccc(-c3nc4ccc(Cl)cc4s3)c12,104
7,CC(C)(C)CN1CCC2(CC1)CN(c1ccccc1NC(=O)Nc1nc3ccc(Cl)nc3s1)c1c(O)ccc(-c3nc4cc(C(F)(F)F)ccc4s3)c12,24.6
8,CC(C)(C)CN1CCC2(CC1)CN(c1ccccc1NC(=O)Nc1nc3ccc(Cl)nc3s1)c1c(O)ccc(-c3nc4cc(Cl)ccc4s3)c12,53.7
9,CC(C)(C)CN1CCC2(CC1)CN(c1ccccc1NC(=O)Nc1nc3ccc(F)cc3s1)c1c(O)ccc(-c3nc4cc(Cl)ccc4s3)c12,1.2
10,CC(C)(C)CN1CCC2(CC1)CN(c1ccccc1NC(=O)Nc1csc(Cl)n1)c1c(O)ccc(-c3nc4cccc(Cl)c4s3)c12,18.4
11,CC(C)(C)CN1CCC2(CC1)CN(c1ccccc1NC(=O)Nc1nc3ccc(Cl)cc3s1)c1c(O)cc(F)c(Cl)c12,23.1
12,CC(C)(C)CN1CCC2(CC1)CN(c1ccccc1NC(=O)Nc1csc(Cl)n1)c1c(O)cc(F)c(Cl)c12,19
